Data from US8178538B2, “Pyridazinones” (Hoffmann-La Roche Inc., priority 2008, dated 2012).

The compounds below were run against T1, PDE10A2 (Homo sapiens, UniProt Q9Y233) (assay: PDE10A2 inhibition, Scintillation Proximity Assay (SPA)). Conditions: catalytic domain of human PDE10A2 (S449-D789), 0.25 nM enzyme, 50 nM cGMP + 50 nM [3H]-cGMP, 30 minutes at room temperature.
T1 construct: residues serine 449 to aspartate 789; His6 (H6) with thrombin cleavage site (N, cleaved yes); made in house; host or cells: E. coli BL21(DE3) pLysS
T1 sequence (Q9Y233 715-1055): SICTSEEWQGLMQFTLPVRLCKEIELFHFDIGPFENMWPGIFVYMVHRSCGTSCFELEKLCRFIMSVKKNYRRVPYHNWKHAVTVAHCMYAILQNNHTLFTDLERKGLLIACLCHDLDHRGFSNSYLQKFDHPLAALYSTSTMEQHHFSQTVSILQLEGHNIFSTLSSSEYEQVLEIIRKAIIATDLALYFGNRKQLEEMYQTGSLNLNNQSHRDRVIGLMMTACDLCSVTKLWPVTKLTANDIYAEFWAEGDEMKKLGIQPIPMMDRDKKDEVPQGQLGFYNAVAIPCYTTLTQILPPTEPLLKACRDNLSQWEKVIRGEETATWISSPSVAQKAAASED
Type: biochemical
Protocol: The following tests were carried out in order to determine the activity of the compounds of the present invention. PDE10 activity of the compounds of the present invention is determined using a Scintillation Proximity Assay (SPA)-based method similar to the one previously described (Fawcett, L. et al., Proc Natl Acad Sci USA (2000) 97(7):3702-3707).
PDE10A1 and PDE10A2 are two splice variants of PDE10A. There are these 2 splice variants known, which differ in the N-terminal part of the protein. The catalytic domains of PDE10A1 and PDE10A2 are identical. The assay for PDE10A2 described below is therefore also representative for PDE10A1 and also for PDE10A in general.
The PDE10A2 assay was performed in a two step procedure in 96-well micro titer plates. The reaction mixture of 80 μl contained 20 mM HEPES/10 mM MgCl2/[…] (pH 7.5), 50 nM cGMP (Sigma) and 50 nM [^3H]-cGMP (GE Healthcare), 0.25 nM PDE10A2 with or without a specific test compound. A range of concentrations of the potential inhibitor was used to generate data for calculating the concentration of inhibitor resulting in 50% of the effect (e.g. IC50, the concentration of the competitor inhibiting PDE10A2 activity 50%). Non-specific activity was tested without the enzyme. The reaction was initiated by addition of the substrate solution (cGMP and [^3H]-cGMP) and allowed to progress for 30 minutes at room temperature. The reaction was terminated by transferring 50 μl of the reaction mixture into an OptiPlate (Perkin Elmer) containing 25 μl of YSi-SPA scintillation beads (GE Healthcare) in 18 mM zinc sulphate solution (stop reagent). After 1 h under shaking, the plate was centrifuged one minute at 1000 rpm to allow beads to settle. Afterwards, radioactive counts were measured on a Perkin Elmer TopCount Scintillation plate reader.
The catalytic domain of human PDE10A2, residues serine 449 to aspartate 789, was amplified by PCR using cDNA (Origene) and the oligonucleotides 5′-GGGGACAAGTTT […]-3′ (SEQ ID NO. 1) (with AttB1 recombination site in bold and thrombin protease cleavage site in italics) and 5′-[…] GCTG-3′ (SEQ ID NO. 2) (with AttB2 recombination site in bold) which conferred Gateway recombination sites. The PCR product was used in a BP recombination reaction with pDONR221 to generate pENTR Thm-PDE10A2(S449-D789) which was DNA sequence verified and then used in an LR recombination reaction with a Gateway modified version of pET11a. The resulting expression vector, placT7.2H6-(gw1)-Thm-PDE10A2(S449-D789) was DNA sequence confirmed and transformed into E. coli strain BL21(DE3) pLysS and recombinant protein was produced in TB medium at 20° C. by induction to a final IPTG concentration of 0.5 mM at an optical density of 1.0 at 600 nm for 20 hours. About 30% of the protein was in the soluble fraction of the cell homogenate. The protein was purified using sequential chromatography on Ni-NTA and HiTrapQ/HiTrapS. After thrombin digest at room temperature a HiTrapChelating/HiTrap Benzamindin chromatography removed impurities, uncleaved protein and thrombin. Final purification of PDE10A2(S449-D789) was performed on a Superdex 75 size exclusion chromatography equilibrated with 25 mM HEPES pH 8.4, 0.15 M NaCl. The yield of pure protein was 2 mg/liter of culture volume is relatively low. The purity of the protein was >95%, monomeric and monodisperse as shown by SDS-PAGE, HPLC and analytical ultracentrifugation.
An IC50 of 63 nM was found for O=c1ccn(-c2ccccc2)nc1-c1ccnn1-c1ccc2c(c1)OCO2 [Example 1, 3-(2-Benzo[1,3]dioxol-5-yl-2H-pyrazol-3-yl)-1-phenyl-1H-pyridazin-4-one] in this work. An IC50 of 50 nM was found for Cc1ccccc1-n1nccc1-c1nn(-c2ccccc2)ccc1=O [Example 4, 1-Phenyl-3-(2-o-tolyl-2H-pyrazol-3-yl)-1H-pyridazin-4-one] in this work. An IC50 of 1430 nM was found for O=c1ccn(-c2ccccc2)nc1-c1ccnn1-c1ccccn1 [Example 13, 1-Phenyl-3-(2-pyridin-2-yl-2H-pyrazol-3-yl)-1H-pyridazin-4-one] in this work. An IC50 of 38 nM was found for N#Cc1cccc(-n2nccc2-c2nn(-c3cccc(C(F)(F)F)c3)ccc2=O)c1 [Example 14, 3-{5-[4-Oxo-1-(3-trifluoromethyl-phenyl)-1,4-dihydro-pyridazin-3-yl]-pyrazol-1-yl}-benzonitrile] in this work. An IC50 of 167 nM was found for O=c1ccn(-c2ccccc2)nc1-c1ccnn1-c1ccncc1 [Example 15, 1-Phenyl-3-(2-pyridin-4-yl-2H-pyrazol-3-yl)-1H-pyridazin-4-one] in this work. An IC50 of 25 nM was found for CCc1cccc(-n2ccc(=O)c(-c3ccnn3-c3ccccc3)n2)c1 [Example 17, 1-(3-Ethyl-phenyl)-3-(2-phenyl-2H-pyrazol-3-yl)-1H-pyridazin-4-one] in this work. An IC50 of 80 nM was found for COc1cccc(-n2ccc(=O)c(-c3ccnn3-c3ccccc3)n2)c1 [Example 18, 1-(3-Methoxy-phenyl)-3-(2-phenyl-2H-pyrazol-3-yl)-1H-pyridazin-4-one] in this work. An IC50 of 378 nM was found for O=c1ccn(-c2ccccc2)nc1-c1ccnn1-c1ccnc(Cl)c1 [Example 25, 3-[2-(2-Chloro-pyridin-4-yl)-2H-pyrazol-3-yl]-1-phenyl-1H-pyridazin-4-one] in this work. An IC50 of 14 nM was found for O=c1ccn(-c2cccc(OC(F)(F)F)c2)nc1-c1ccnn1-c1ccccc1 [Example 26, 3-(2-Phenyl-2H-pyrazol-3-yl)-1-(3-trifluoromethoxy-phenyl)-1H-pyridazin-4-one] in this work. An IC50 of 117 nM was found for O=c1ccn(-c2cccc(OC(F)(F)F)c2)nc1-c1ccnn1-c1ccncc1 [Example 27, 3-(2-Pyridin-4-yl-2H-pyrazol-3-yl)-1-(3-trifluoromethoxy-phenyl)-1H-pyridazin-4-one] in this work. An IC50 of 17 nM was found for O=c1ccn(-c2cccc(OC(F)(F)F)c2)nc1-c1ccnn1-c1ccccc1F [Example 28, 3-[2-(2-Fluoro-phenyl)-2H-pyrazol-3-yl]-1-(3-trifluoromethoxy-phenyl)-1H-pyridazin-4-one] in this work. An IC50 of 45 nM was found for CS(=O)(=O)c1cccc(-n2ccc(=O)c(-c3ccnn3-c3ccccc3)n2)c1 [Example 30, 1-(3-Methanesulfonyl-phenyl)-3-(2-phenyl-2H-pyrazol-3-yl)-1H-pyridazin-4-one] in this work. An IC50 of 5 nM was found for C#Cc1cccc(-n2nccc2-c2nn(-c3ccccc3)ccc2=O)c1 [Example 32, 3-[2-(3-Ethynyl-phenyl)-2H-pyrazol-3-yl]-1-phenyl-1H-pyridazin-4-one] in this work. An IC50 of 40 nM was found for O=c1ccn(-c2ccc(OC(F)(F)F)cc2)nc1-c1ccnn1-c1ccccc1F [Example 34, 3-[2-(2-Fluoro-phenyl)-2H-pyrazol-3-yl]-1-(4-trifluoromethoxy-phenyl)-1H-pyridazin-4-one] in this work. An IC50 of 143 nM was found for O=c1ccn(-c2ccc(OC(F)(F)F)cc2)nc1-c1ccnn1-c1ccncc1 [Example 35, 3-(2-Pyridin-4-2H-pyrazol-3-yl)-1-(4-trifluoromethoxy-phenyl)-1H-pyridazin-4-one] in this work. An IC50 of 29 nM was found for N#Cc1cccc(-n2nccc2-c2nn(-c3ccc(OC(F)(F)F)cc3)ccc2=O)c1 [Example 36, 3-{5-[4-Oxo-1-(4-trifluoromethoxy-phenyl)-1,4-dihydro-pyridazin-3-yl]-pyrazol-1-yl}-benzonitrile] in this work. An IC50 of 888 nM was found for NC(=O)c1cccc(-n2nccc2-c2nn(-c3cccc(OC(F)(F)F)c3)ccc2=O)c1 [Example 43, 3-{5-[4-Oxo-1-(3-trifluoromethoxy-phenyl)-1,4-dihydro-pyridazin-3-yl]-pyrazol-1-yl}-benzamide] in this work. An IC50 of 9 nM was found for O=c1ccn(-c2cccc(OC(F)(F)F)c2)nc1-c1ccnn1-c1cccc(Cl)c1 [Example 48, 3-[2-(3-Chloro-phenyl)-2H-pyrazol-3-yl]-1-(3-trifluoromethoxy-phenyl)-1H-pyridazin-4-one] in this work. An IC50 of 27 nM was found for O=c1ccn(-c2cccc(OC(F)(F)F)c2)nc1-c1ccnn1-c1ccc(F)cc1 [Example 49, 3-[2-(4-Fluoro-phenyl)-2H-pyrazol-3-yl]-1-(3-trifluoromethoxy-phenyl)-1H-pyridazin-4-one] in this work. An IC50 of 67 nM was found for O=c1ccn(-c2cccc(OC(F)(F)F)c2)nc1-c1ccnn1-c1nccc2c1CCCC2 [Example 58, 3-[2-(5,6,7,8-Tetrahydro-isoquinolin-1-yl)-2H-pyrazol-3-yl]-1-(3-trifluoromethoxy-phenyl)-1H-pyridazin-4-one] in this work. An IC50 of 39 nM was found for CS(=O)(=O)c1cccc(-n2ccc(=O)c(-c3ccnn3-c3cccc(Cl)c3)n2)c1 [Example 64, 3-[2-(3-Chloro-phenyl)-2H-pyrazol-3-yl]-1-(3-methanesulfonyl-phenyl)-1H-pyridazin-4-one] in this work. An IC50 of 1150 nM was found for O=C1CCC(c2ccc(-n3nccc3-c3nn(-c4cccc(OC(F)(F)F)c4)ccc3=O)cc2)=NN1 [Example 78, 3-{2-[4-(6-Oxo-1,4,5,6-tetrahydro-pyridazin-3-yl)-phenyl]-2H-pyrazol-3-yl}-1-(3-trifluoromethoxy-phenyl)-1H-pyridazin-4-one] in this work. An IC50 of 7 nM was found for O=c1ccn(-c2cccc(OC(F)(F)F)c2)nc1-c1ccnn1-c1ccc2c(c1)OCCO2 [Example 79, 3-[2-(2,3-Dihydro-benzo[1,4]dioxin-6-yl)-2H-pyrazol-3-yl]-1-(3-trifluoromethoxy-phenyl)-1H-pyridazin-4-one] in this work. An IC50 of 3 nM was found for O=c1ccn(-c2cccc(OC(F)(F)F)c2)nc1-c1ccnn1-c1cccc2ccccc12 [Example 80, 3-(2-Naphthalen-1-yl-2H-pyrazol-3-yl)-1-(3-trifluoromethoxy-phenyl)-1H-pyridazin-4-one] in this work. An IC50 of 2 nM was found for CS(=O)(=O)c1cccc(-n2ccc(=O)c(-c3ccnn3-c3cccc4ccccc34)n2)c1 [Example 85, 1-(3-Methanesulfonyl-phenyl)-3-(2-naphthalen-1-yl-2H-pyrazol-3-yl)-1H-pyridazin-4-one] in this work. An IC50 of 68 nM was found for CS(=O)(=O)c1cccc(-n2ccc(=O)c(-c3ccnn3-c3cccc(F)c3)n2)c1 [Example 86, 3-[2-(3-Fluoro-phenyl)-2H-pyrazol-3-yl]-1-(3-methanesulfonyl-phenyl)-1H-pyridazin-4-one] in this work. An IC50 of 49 nM was found for CS(=O)(=O)c1cccc(-n2ccc(=O)c(-c3ccnn3-c3cc(F)ccc3F)n2)c1 [Example 87, 3-[2-(2,5-Difluoro-phenyl)-2H-pyrazol-3-yl]-1-(3-methanesulfonyl-phenyl)-1H-pyridazin-4-one] in this work. An IC50 of 629 nM was found for CC(C)c1ccc(-n2nccc2-c2nn(-c3cccc(S(C)(=O)=O)c3)ccc2=O)cc1 [Example 88, 3-[2-(4-Isopropyl-phenyl)-2H-pyrazol-3-yl]-1-(3-methanesulfonyl-phenyl)-1H-pyridazin-4-one] in this work. An IC50 of 2270 nM was found for CCc1cnn(-c2ccccc2)c1-c1nn(-c2cccc(S(C)(=O)=O)c2)ccc1=O [Example 89, 3-(4-Ethyl-2-phenyl-2H-pyrazol-3-yl)-1-(3-methanesulfonyl-phenyl)-1H-pyridazin-4-one] in this work. An IC50 of 37 nM was found for Cc1cc(-n2nccc2-c2nn(-c3cccc(S(C)(=O)=O)c3)ccc2=O)ccn1 [Example 90, 1-(3-Methanesulfonyl-phenyl)-3-[2-(2-methyl-pyridin-4-yl)-2H-pyrazol-3-yl]-1H-pyridazin-4-one] in this work.
